In patent US20240108739A1, “OLIGOMERIC COMPOUNDS BINDING SPECIFICALLY TO PROTEOGLYCANS” (PHI PHARMA SA, priority 2020, published 2024):
Positions of bridges follow the written chain, without caps; N, C: chain ends. Non-standard residues stand in square brackets, D forms with d. Residues, ends and D or L forms follow the SMILES beside them. Chains are numbered I, II in the order given. ξ: configuration not given here. *: point of attachment. X2 = O=C(CCCCCN1C(=O)CC(*)C1=O)NNC(=O)CCCCC1SC[C@H]2NC(=O)N[C@@H]12; ξIle = CC[C@H](C)C(N)C(=O)O; Orn = NCCC[C@H](N)C(=O)O

Columns and labels:
Format in all cases: cell-based
[1] = system: HL-60 (leukemia) cells; assay: Flow cytometry binding to tumor cell lines (Example 5); conditions: FIG. 6
Procedure: (§1) Tumor cell lines in exponential growth phase were cultured in complete culture medium with 10% FBS and grown in 75 cm^2 cell culture flasks. On the day of the experiment, cells were harvested and transferred in V-bottom culture plates, washed with PBS 1× supplemented with BSA 3% and then incubated with the compounds for 30 min at 4° C. in PBS 1× supplemented with BSA 3% and PEG600 2% at various dilutions (serial dilutions).
(§2) After the incubation, cells were washed in PBS 1× supplemented with BSA 3%. For biotinylated compounds, cells are then incubated for 15 min at 4° C. with streptavidin coupled to 680RD fluorochrome.
(§3) After the incubation, cells were washed in PBS 1× supplemented with 3% BSA and then incubated for at least 15 min at 4° C. with DAPI (Thermo Fisher Scientific) in order to exclude dead cells and samples are directly applied to a flow cytometer. Data generated using the flow cytometer was analyzed using Flowjo™10.6.0 Fluorescence geometric mean (via the use of streptavidin-680RD) of samples was standardized by subtracting the fluorescence geometric mean of the negative control (no compound) and the addition of 1. Experimental design is outlined in Table 9.

[2] = system: U937 (lymphoma) cells; assay: as above; conditions: FIG. 6
Procedure: as §1, §2, §3

[3] = system: CHO-pgsA-745 cells (GAG-deficient mutant); assay: Flow cytometry binding of biotinylated compounds to CHO cells (Example 3); conditions: 30 min at 4 °C, streptavidin-680RD fluorescence; FIG. 3B
Procedure: Cell lines in exponential growth phase were cultured in complete culture medium with 10% FBS and grown in 75 cm^2 cell culture flasks. On the day of the experiment, cells were harvested and transferred in V-bottom culture plates, washed with PBS 1× supplemented with BSA 3% and then incubated with (51-hS)2KC-Mal-Biotin, (51-hS)2KS-(51-hS)KC-Mal-Biotin, [(51-hS)2KS]2KK(Biotin) and VAR2-Biotin for 30 min at 4° C. in PBS 1× supplemented with BSA 3% (and eventually PEG600 2%) at various dilutions (serial dilutions).
After the incubation, cells were washed in PBS 1× supplemented with BSA 3%. For visualization, cells were incubated for 15 min at 4° C. with streptavidin coupled to 680RD fluorochrome. After the incubation, cells were washed in PBS 1× supplemented with 3% BSA and then incubated for at least 15 min at 4° C. with 4′,6-diamidino-2-phenylindole (DAPI) (Thermo Fisher Scientific) in order to exclude dead cells. Samples were directly applied to a flow cytometer. Data generated on the flow cytometer was analyzed using Flowjo™ 10.6.0.

SMILES: CC[C@H](C)C(NC(=O)[C@H](CCCNC(=N)N)NC(=O)[C@H](NC(=O)[C@H](Cc1ccccc1)NC(=O)[C@H](Cc1ccc(O)cc1)NC(=O)[C@H](CCCNC(=N)N)NC(C)=O)C(C)C)C(=O)N[C@@H](CCCN)C(=O)N[C@@H](Cc1ccc(O)cc1)C(=O)N[C@@H](CCCNC(=N)N)C(=O)N[C@H](Cc1c[nH]cn1)C(=O)N[C@@H](CO)C(=O)N[C@@H](CCCCNC(=O)[C@H](CO)NC(=O)[C@@H](Cc1c[nH]cn1)NC(=O)[C@H](CCCNC(=N)N)NC(=O)[C@H](Cc1ccc(O)cc1)NC(=O)[C@H](CCCN)NC(=O)[C@@H](NC(=O)[C@H](CCCNC(=N)N)NC(=O)[C@H](NC(=O)[C@H](Cc1ccccc1)NC(=O)[C@H](Cc1ccc(O)cc1)NC(=O)[C@H](CCCNC(=N)N)NC(C)=O)C(C)C)[C@@H](C)CC)C(=O)N[C@@H](CSC1CC(=O)N(CCCCCC(=O)NNC(=O)CCCCC2SC[C@H]3NC(=O)N[C@@H]23)C1=O)C(N)=O (stereo partly drawn) [(51-hS)2KC-Mal-Biotin] (I: Ac-RYF[dV]R[ξIle][Orn]YR[dH]SKC(X2)-NH2 / II: Ac-RYF[dV]RI[Orn]YR[dH]S; amide I:12-II:C)
- reduction of binding on HL-60 cells as compared with (51-hS)2KS-(51-hS)KC-Mal-Biotin [1]: at least 10 ×
- reduction of binding on U937 cells as compared with (51-hS)2KS-(51-hS)KC-Mal-Biotin [2]: at least 10 ×
- reduction of fluorescence on CHO-pgsA-745 as compared with fluorescence on CHO-K1 cells [3]: 4.6 fold
